Patent US20260207578A1, “COMPOUND BASED ON SULFUR/OXYGEN SUBSTITUTED GLUTARIMIDE-BASED ISOINDOLINONE SKELETON AND USE THEREOF” (Gluetacs Therapeutics (Shanghai) Co., LTD., priority 2022, published 2026)

Tests used:
[1] = target: T1, CK1α (Homo sapiens, UniProt P48729+Q96SW2); test: Western-blot assay, substrate protein in hPBMCs; type: cell-based; conditions: hPBMC cells, 24 hours, tested at 50 nM and 500 nM, table does not say which
T1 construct: endogenous in cells; host or cells: human PBMCs (Milecell Biotechnologies)
Protocol: (§1) The effect of the compounds of the present disclosure on the expression of target proteins in cells was detected using conventional Western blot analysis.
(§2) Human peripheral blood mononuclear cells (hPBMCs) at a density of 1×10^6 cells/mL were thawed according to the PBMC Recovery Protocol (Milecell Biotechnologies Inc, Shanghai).
(§3) After 24 hours of compounds treatment, cells were harvested and lysed in RIPA protein lysate containing phosphatase inhibitors on ice for 30-60 min, followed by centrifugation. The supernatant was aspirated as the extracted total cell protein. The protein concentration of the supernatant was determined using the conventional BCA (Bicinchoninic Acid) assay. The supernatant was then mixed with 4× SDS sample loading buffer, denatured at 95° C. for 5 minutes, and then subjected to SDS-PAGE electrophoresis on a polyacrylamide gel. Proteins were then transferred to a nitrocellulose (NC) membrane, blocked at room temperature for 1-2 h, and processed for antibody incubation and detection according to the manufacturer's instructions (Cell Signaling Technology).
(§4) Half-Maximal Degradation Concentration value (the drug concentration required for degrading proteins by 50%, abbreviated as DC50) reads method: comparing the grayscale values of Western blot bands from drug-treated samples with those from blank DMSO-treated controls, and identifying the drug concentration range at which the grayscale value is half that of the DMSO-treated control bands.
(§5) DC50 values can be calculated using ImageJ software to measure grayscale values of Western blot bands from drug-treated samples. The concentration-response curve is fitted to estimate the drug concentration corresponding to half the grayscale value.
(§6) Target protein remaining (%) refers to the percentage of target protein remaining in hPBMC cells after treatment with protein degrader compounds.
(§7) Calculation method for protein remaining (%): Use ImageJ software to measure grayscale values of Western blot bands from drug (protein degrader)-treated samples. The grayscale value of drug-treated bands is divided by that of internal control protein bands, and the resulting quotient is normalized to obtain the relative percentage of remaining target protein after protein degrader treatment.
(§8) Target protein degradation rate (%)=100%−target protein remaining (%).

[2] = target: T2, GSPT1 (Homo sapiens, UniProt P15170+Q96SW2); test: Western-blot assay, substrate protein in hPBMCs; type: cell-based; conditions: hPBMC cells, 24 hours, tested at 50 nM and 500 nM, table does not say which
T2 construct: endogenous in cells; host or cells: human PBMCs (Milecell Biotechnologies)
Protocol: as §1, §2, §3, §4, §5, §6, §7, §8

[3] = target: T3, Wee1 (Homo sapiens, UniProt P30291+Q96SW2); test: Western-blot assay, substrate protein in hPBMCs; type: cell-based; conditions: hPBMC cells, 24 hours, tested at 50 nM and 500 nM, table does not say which
T3 construct: endogenous in cells; host or cells: human PBMCs (Milecell Biotechnologies)
Protocol: as §1, §2, §3, §4, §5, §6, §7, §8

[4] = target: T4, human Cereblon WT GST-tagged protein (Homo sapiens, UniProt Q96SW2); test: CRBN-binding affinity, HTRF (CEREBLON BINDING kit); conditions: displacement of Thalidomide-Re reagent, 3 hours at room temperature
T4 construct: purchased CISBIO 64BDCRBNPEH
Protocol: The CEREBLON BINDING kits (specification: 10,000 tests; product number: Catalog #64BDCRBNPEH; CISBIO company) was used to determine the CRBN binding ability of the compounds to be tested through a HTRF method (homogeneous time-resolved fluorescence). The specific methods are as follows: • 1. […] Then, 2.5 μL of human Cereblon WT GST-tagged protein solution was added to each well. Finally, 5 μL of the thoroughly mixed Thalidomide-Re reagent and GST Eu antibody working solution were added to each of the aforementioned wells. […] The blank control wells were sequentially added with 2.5 μL of diluent #9 (1×) solution, 2.5 μL of PROTAC binding buffer, and 5 μL of thoroughly mixed Thalidomide-Re reagent and GST Eu antibody working solution. • 4.
OD 620 nmcompound is the absorbance value of each well of the compounds to be tested of the present disclosure at an emission wavelength of 620 nm. […] OD 620 nmcontrol is the absorbance value of the blank control well at an emission wavelength of 620 nm. […] OD 620 nmStd0 is the absorbance value of the solvent control well at an emission wavelength of 620 nm.

T4 sequence (Q96SW2 whole entry): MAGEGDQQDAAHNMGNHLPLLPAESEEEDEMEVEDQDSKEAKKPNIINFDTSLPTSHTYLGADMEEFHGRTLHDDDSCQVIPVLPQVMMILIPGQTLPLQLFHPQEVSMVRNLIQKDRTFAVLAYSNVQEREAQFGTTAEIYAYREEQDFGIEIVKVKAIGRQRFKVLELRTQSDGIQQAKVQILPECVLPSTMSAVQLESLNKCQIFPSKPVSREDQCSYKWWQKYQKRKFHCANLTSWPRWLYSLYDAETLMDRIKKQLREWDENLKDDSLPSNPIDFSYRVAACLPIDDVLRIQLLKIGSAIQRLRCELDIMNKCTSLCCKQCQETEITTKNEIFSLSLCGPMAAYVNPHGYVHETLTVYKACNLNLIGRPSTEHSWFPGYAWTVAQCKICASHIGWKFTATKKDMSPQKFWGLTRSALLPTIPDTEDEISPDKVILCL
T2 sequence (P15170 whole entry): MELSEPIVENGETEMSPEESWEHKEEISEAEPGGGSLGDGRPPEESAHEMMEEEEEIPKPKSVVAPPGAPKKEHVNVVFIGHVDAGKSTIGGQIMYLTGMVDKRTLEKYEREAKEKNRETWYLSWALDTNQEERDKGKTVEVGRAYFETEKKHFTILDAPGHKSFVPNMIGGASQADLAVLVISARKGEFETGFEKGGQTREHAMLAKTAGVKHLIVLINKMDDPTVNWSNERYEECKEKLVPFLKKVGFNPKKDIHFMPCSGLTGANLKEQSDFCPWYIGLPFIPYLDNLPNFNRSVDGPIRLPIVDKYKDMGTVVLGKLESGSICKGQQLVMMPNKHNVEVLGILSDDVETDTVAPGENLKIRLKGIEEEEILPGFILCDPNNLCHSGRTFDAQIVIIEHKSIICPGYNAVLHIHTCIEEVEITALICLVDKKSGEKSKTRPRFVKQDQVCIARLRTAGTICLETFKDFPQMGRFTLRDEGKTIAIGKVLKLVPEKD
T2 sequence (Q96SW2 whole entry): as the sequence (Q96SW2 whole entry) above
T2 sequence (Q16531 whole entry partner): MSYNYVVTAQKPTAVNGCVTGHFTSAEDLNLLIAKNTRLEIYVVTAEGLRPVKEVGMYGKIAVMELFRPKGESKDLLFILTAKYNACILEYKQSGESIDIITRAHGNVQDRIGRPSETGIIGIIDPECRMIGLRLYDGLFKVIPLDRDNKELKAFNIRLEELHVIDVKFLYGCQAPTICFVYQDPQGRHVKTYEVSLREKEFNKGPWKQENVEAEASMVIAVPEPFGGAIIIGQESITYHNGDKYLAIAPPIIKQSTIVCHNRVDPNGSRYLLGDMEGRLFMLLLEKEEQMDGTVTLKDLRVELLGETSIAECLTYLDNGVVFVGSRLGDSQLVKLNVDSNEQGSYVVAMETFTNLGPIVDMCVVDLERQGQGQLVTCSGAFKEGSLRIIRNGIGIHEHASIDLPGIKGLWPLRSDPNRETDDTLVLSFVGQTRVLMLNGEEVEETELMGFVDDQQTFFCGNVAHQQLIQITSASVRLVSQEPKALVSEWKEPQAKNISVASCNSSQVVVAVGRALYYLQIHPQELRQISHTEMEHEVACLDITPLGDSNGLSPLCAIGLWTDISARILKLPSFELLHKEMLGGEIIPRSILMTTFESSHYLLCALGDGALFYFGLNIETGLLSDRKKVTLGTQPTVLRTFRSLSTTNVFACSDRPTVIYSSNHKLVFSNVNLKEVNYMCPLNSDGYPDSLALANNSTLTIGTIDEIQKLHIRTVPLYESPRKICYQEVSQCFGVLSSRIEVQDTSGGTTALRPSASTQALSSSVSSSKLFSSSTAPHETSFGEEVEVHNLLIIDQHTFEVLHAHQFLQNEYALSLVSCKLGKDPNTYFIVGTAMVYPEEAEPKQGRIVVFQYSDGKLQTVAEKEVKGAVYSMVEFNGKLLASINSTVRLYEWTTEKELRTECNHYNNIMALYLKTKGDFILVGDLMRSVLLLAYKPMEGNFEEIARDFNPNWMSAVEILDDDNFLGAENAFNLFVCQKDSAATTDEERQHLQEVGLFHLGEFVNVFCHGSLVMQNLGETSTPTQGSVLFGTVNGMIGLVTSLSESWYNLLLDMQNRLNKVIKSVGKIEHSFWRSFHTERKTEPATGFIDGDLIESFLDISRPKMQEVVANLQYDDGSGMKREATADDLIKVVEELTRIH
T3 sequence (P30291 whole entry): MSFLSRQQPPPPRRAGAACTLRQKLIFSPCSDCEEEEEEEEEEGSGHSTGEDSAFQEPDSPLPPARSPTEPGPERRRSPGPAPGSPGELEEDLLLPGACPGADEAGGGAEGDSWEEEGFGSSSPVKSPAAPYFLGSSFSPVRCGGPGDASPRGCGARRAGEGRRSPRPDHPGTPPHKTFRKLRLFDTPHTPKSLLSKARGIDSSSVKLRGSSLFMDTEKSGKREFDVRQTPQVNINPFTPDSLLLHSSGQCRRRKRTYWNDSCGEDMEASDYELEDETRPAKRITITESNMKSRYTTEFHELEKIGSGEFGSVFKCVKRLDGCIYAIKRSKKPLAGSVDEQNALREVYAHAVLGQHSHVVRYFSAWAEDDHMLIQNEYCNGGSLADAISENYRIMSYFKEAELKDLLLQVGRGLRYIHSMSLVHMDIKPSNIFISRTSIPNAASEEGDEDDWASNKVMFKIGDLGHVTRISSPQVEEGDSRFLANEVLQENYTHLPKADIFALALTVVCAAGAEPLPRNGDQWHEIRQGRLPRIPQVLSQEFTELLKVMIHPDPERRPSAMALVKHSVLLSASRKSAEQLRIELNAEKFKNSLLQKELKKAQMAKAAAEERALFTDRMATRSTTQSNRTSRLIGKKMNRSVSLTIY
T3 sequence (Q96SW2 whole entry): as the sequence (Q96SW2 whole entry) above
T3 sequence (Q16531 whole entry partner): as the sequence (Q16531 whole entry partner) above
T1 sequence (P48729 whole entry): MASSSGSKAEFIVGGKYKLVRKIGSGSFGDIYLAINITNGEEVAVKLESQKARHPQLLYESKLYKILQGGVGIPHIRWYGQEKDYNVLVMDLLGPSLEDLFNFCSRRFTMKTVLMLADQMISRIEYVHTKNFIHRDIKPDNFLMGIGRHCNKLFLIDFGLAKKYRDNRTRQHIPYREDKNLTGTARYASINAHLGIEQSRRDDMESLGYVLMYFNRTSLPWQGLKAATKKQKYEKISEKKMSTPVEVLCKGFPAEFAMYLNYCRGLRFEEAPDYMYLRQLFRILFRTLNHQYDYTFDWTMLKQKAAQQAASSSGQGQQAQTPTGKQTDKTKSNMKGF
T1 sequence (Q96SW2 whole entry): as the sequence (Q96SW2 whole entry) above
T1 sequence (Q16531 whole entry partner): as the sequence (Q16531 whole entry partner) above

Structure (SMILES)	substrate protein remaining % [1]	substrate protein remaining % [2]	substrate protein remaining % [3]	IC50 [4]
O=C1CCC(N2Cc3cc(OC4CN(Cc5cccc(-c6ccc(Cl)cc6)c5)C4)ccc3C2=O)C(=O)N1 (stereo not shown) [GT-06227, 3-(5-((1-((4′-chloro-[1,1′-biphenyl]-3-yl)methyl)azetidin-3-yl)oxy)-1-oxoisoindolin-2-yl)piperidine-2,6-dione]	A (0%≤ substrate protein remaining % ≤80%)	A (0%≤ substrate protein remaining % ≤80%)	A (0%≤ substrate protein remaining % ≤80%)	
O=C1CCC(N2Cc3cc(OC4CCN(Cc5cccc(-c6ccc(Cl)cc6)c5)CC4)ccc3C2=O)C(=O)N1 (stereo not shown) [GT-06228, 3-(5-((1-((4′-chloro-[1,1′-biphenyl]-3-yl)methyl)piperidin-4-yl)oxy)-1-oxoisoindolin-2-yl)piperidine-2,6-dione]	A (0%≤ substrate protein remaining % ≤80%)	A (0%≤ substrate protein remaining % ≤80%)	A (0%≤ substrate protein remaining % ≤80%)	
O=C1CCC(N2Cc3cc(OC4CN(Cc5ccc(-c6ccc(Cl)cc6)cc5)C4)ccc3C2=O)C(=O)N1 (stereo not shown) [GT-06230, 3-(5-((1-((4′-chloro-[1,1′-biphenyl]-4-yl)methyl)azetidin-3-yl)oxy)-1-oxoisoindolin-2-yl)piperidine-2,6-dione]	A (0%≤ substrate protein remaining % ≤80%)	A (0%≤ substrate protein remaining % ≤80%)	A (0%≤ substrate protein remaining % ≤80%)	500 to 1000 nM
O=C1CCC(N2Cc3cc(OC4CN(C(c5ccc(F)cc5)c5ccc(F)cc5)C4)ccc3C2=O)C(=O)N1 (stereo not shown) [GT-06519, 3-(5-((1-(bis(4-fluorophenyl)methyl)azetidin-3-yl)oxy)-1-oxoisoindolin-2-yl)piperidine-2,6-dione]	A (0%≤ substrate protein remaining % ≤80%)			500 to 1000 nM
O=C1CCC(N2Cc3cc(OC4CCN(C(=O)c5ccccc5-c5ccc(Cl)cc5)C4)ccc3C2=O)C(=O)N1 (stereo not shown) [GT-06818, 3-(5-((1-(4′-chloro-[1,1′-biphenyl]-2-carbonyl)pyrrolidin-3-yl)oxy)-1-oxoisoindolin-2-yl)piperidine-2,6-dione]	A (0%≤ substrate protein remaining % ≤80%)	A (0%≤ substrate protein remaining % ≤80%)	A (0%≤ substrate protein remaining % ≤80%)	< 500 nM
O=C1CCC(N2Cc3cc(OC4CC5CN(Cc6ccccc6-c6ccc(Cl)cc6)CC5C4)ccc3C2=O)C(=O)N1 (stereo not shown) [GT-06953, 3-(5-((2-((4′-chloro-[1,1′-biphenyl]-2-yl)methyl)octahydrocyclopenta [c]pyrrol-5-yl)oxy)-1-oxoisoindolin-2-yl)piperidine-2,6-dione]	A (0%≤ substrate protein remaining % ≤80%)		A (0%≤ substrate protein remaining % ≤80%)	< 500 nM
O=C1CCC(N2Cc3cc(SC4CCCNCC4)ccc3C2=O)C(=O)N1 (stereo not shown) [GT-06995, 3-(5-(azepan-4-ylthio)-1-oxoisoindolin-2-yl)piperidine-2,6-dione]	A (0%≤ substrate protein remaining % ≤80%)			1000 to 1900 nM
COC1(C)CCC(c2ccc(Cl)cc2)=C(CN2CC(Oc3ccc4c(c3)CN(C3CCC(=O)NC3=O)C4=O)C2)C1 (stereo not shown) [GT-07065, 3-(5-((1-((4′-chloro-4-methoxy-4-methyl-3,4,5,6-tetrahydro-[1,1′-biphenyl]-2-yl)methyl)azetidin-3-yl)oxy)-1-oxoisoindolin-2-yl)piperidine-2,6-dione]	A (0%≤ substrate protein remaining % ≤80%)			
